Measurements published in patent US7015228B2, “4-amino-2-(2-pyridyl)pyrimidines as microbicidal active substances” (Ciba Specialty Chemicals Corporation, priority 2001, dated 2006).

What was measured:
Assay in all cases: Determination of the bactericidal activity (logarithmic reduction in organism count)
Conditions in all cases: contact for 30 minutes at a substance concentration of 120 μg/mL
S. aureus ATCC 6538 = type: cell-based, Staphylococcus aureus
Procedure: (§1) Determination of the Bactericidal Activity of Selected Compounds
(§2) Casein-soybean flour-peptone broth for preparation of pre-cultures of test bacteria
(§3) Examples of Test Organisms:
(§4) • Staphylococcus aureus ATCC 6538 • Escherichia coli ATCC 10536 • Salmonella choleraesuis ATCC 10708 Procedure:
(§5) The test substances are dissolved in dimethyl sulfoxide (DMSO) and tested in a concentration of 120 μg/ml.
(§6) Bacteria are incubated overnight in CASO broth and adjusted to an organism count of 1–5×10^5 CFU/ml using 0.85% sodium chloride solution.
(§7) The test substances are pre-pipetted into microtitre plates in amounts of 8 μl per well.
(§8) The adjusted test organism suspensions are added in amounts of 192 μl per well to the test substances and mixed. After defined contact times, the test batches are mixed, an aliquot is withdrawn and diluted in several steps in a dilution series of 1:10 in a suitable inactivation medium.
The test plates are incubated for 24 hours at 37° C.
After incubation, the growth is determined on the basis of the turbidity of the test batches (optical density) at 620 nm in a microplate reader.
(§9) One microtitre plate is used for each test organism.
(§10) All the substances are tested in duplicate.

[1] = tested on: S. choleraesuis ATCC 10708; type: cell-based, Salmonella choleraesuis
Procedure: as §1, §2, §3, §4, §5, §6, §7, §8
The test plates are incubated for 24 hours at 37° C. […]
as §9, §10

E. coli NCTC 8196 = type: cell-based, Escherichia coli

| SMILES | Logarithmic reduction in organism count, S. aureus ATCC 6538 (S. aureus ATCC 6538) | Logarithmic reduction in organism count, S. choleraesuis ATCC 10708 [1] | Logarithmic reduction in organism count, E. coli NCTC 8196 (E. coli NCTC 8196) |
| --- | --- | --- | --- |
| CCCCCCCCCCNc1nc(-c2ccccn2)nc(C)c1CC [Compound of formula 11] | 1–2 log | <1 log | ≦1 log |
| CCCCCCCCCCCCNc1nc(-c2ccccn2)nc(C)c1CC [Compound of formula 12] | 1–2 log | <1 log | <1 log |
| Cc1cc(NCCCCCCCCCN)nc(-c2ccccn2)n1 [Compound of formula 18] | 1 log | <1 log | <1 log |
| Cc1cc(NCCCCCCCCCCCCN)nc(-c2ccccn2)n1 [Compound of formula 19] | 2–3 log | <1 log | ≦1 log |
| CCCCCCCCNc1cc(C)nc(-c2ccccn2)n1 [Compound of formula 21] | 1–2 log | <1 log | <1 log |
| CCCCCCCCCNc1cc(C)nc(-c2ccccn2)n1 [Compound of formula 22] | 1–2 log | <1 log | <1 log |
| CCCCCCCCCCNc1cc(C)nc(-c2ccccn2)n1 [Compound of formula 23] | 3 log | <1 log | <1 log |
| CCCCCCCCCCCCNc1cc(C)nc(-c2ccccn2)n1 [Compound of formula 24] | 2 log | <1 log | ≦1 log |
| NCCCCCCCCCNc1cc(C(F)(F)F)nc(-c2ccccn2)n1 [Compound of formula 30] | ≦1 log | ≦1 log | <1 log |
| CCCCCCCNc1cc(C(F)(F)F)nc(-c2ccccn2)n1 [Compound of formula 32] | <1 log | ≦1 log | <1 log |
| CCCCCCCCNc1cc(C(F)(F)F)nc(-c2ccccn2)n1 [Compound of formula 33] | <1 log | <1 log | <1 log |
| CCCCCCCCCNc1cc(C(F)(F)F)nc(-c2ccccn2)n1 [Compound of formula 34] | <1 log | <1 log | <1 log |
| CCCCCCCCCCNc1cc(C(F)(F)F)nc(-c2ccccn2)n1 [Compound of formula 35] | <1 log | <1 log | <1 log |
| CCCCCCCCCCCCCCCCNc1cc(C(F)(F)F)nc(-c2ccccn2)n1 [Compound of formula 37] | 1–2 log | <1 log | <1 log |
| CC(C)c1cc(NCCCCCCCCCN)nc(-c2ccccn2)n1 [Compound of formula 42] | 2 log | <1 log | ≦1 log |
| CC(C)c1cc(NCCCCCCCCCCCCN)nc(-c2ccccn2)n1 [Compound of formula 43] | 3 log | <1 log | <1 log |
| CCCCCCCNc1cc(C(C)C)nc(-c2ccccn2)n1 [Compound of formula 44] | 1–2 log | <1 log | <1 log |
| CCCCCCCCNc1cc(C(C)C)nc(-c2ccccn2)n1 [Compound of formula 45] | 1–2 log | <1 log | <1 log |

| SMILES | Logarithmic reduction in organism count, S. aureus ATCC 6538 (S. aureus ATCC 6538) | Logarithmic reduction in organism count, S. choleraesuis ATCC 10708 [1] | Logarithmic reduction in organism count, E. coli NCTC 8196 (E. coli NCTC 8196) |
| --- | --- | --- | --- |
| CCCCCCCCCNc1cc(C(C)C)nc(-c2ccccn2)n1 [Compound of formula 46] | ≦1 log | <1 log | <1 log |
| CCCCCCCCCCNc1cc(C(C)C)nc(-c2ccccn2)n1 [Compound of formula 47] | 1 log | <1 log | <1 log |
| CCCCCCCCCCCCNc1cc(C(C)C)nc(-c2ccccn2)n1 [Compound of formula 48] | 1 log | <1 log | <1 log |
| CC(C)(C)c1cc(NCCCCCCCCCN)nc(-c2ccccn2)n1 [Compound of formula 54] | 2–3 log | ≦1 log | ≦1 log |
| CCCCCCCCCNc1cc(C(C)(C)C)nc(-c2ccccn2)n1 [Compound of formula 58] | 1 log | ≦1 log | ≦1 log |
| CCCCCCCCCCCCNc1cc(C(C)(C)C)nc(-c2ccccn2)n1 [Compound of formula 60] | <1 log | <1 log | <1 log |
| CC(C)(C)c1cc(NCCc2ccccc2)nc(-c2ccccn2)n1 [Compound of formula 63] | <1 log | <1 log | ≦1 log |
| Cc1nc(-c2ccccn2)nc(NCCCCCCCCN)c1C(C)C [Compound of formula 65] | 3 log | <1 log | <1 log |
| CCCCCCCNc1nc(-c2ccccn2)nc(C)c1C(C)C [Compound of formula 68] | ≦1 log | <1 log | <1 log |
| CCCCCCCCNc1nc(-c2ccccn2)nc(C)c1C(C)C [Compound of formula 69] | 1–2 log | ≦1 log | <1 log |
| CCCCCCCCCNc1nc(-c2ccccn2)nc(C)c1C(C)C [Compound of formula 70] | ≦1 log | <1 log | ≦1 log |
| CCCCCCCCCCNc1nc(-c2ccccn2)nc(C)c1C(C)C [Compound of formula 71] | 2 log | <1 log | <1 log |
| COCCc1cc(NCCCCCCCCN)nc(-c2ccccn2)n1 [Compound of formula 77] | >3 log | <1 log | <1 log |
| COCCc1cc(NCCCCCCCCCN)nc(-c2ccccn2)n1 [Compound of formula 78] | >3 log | <1 log | ≦1 log |
| CCCCCCCCCCNc1cc(CCOC)nc(-c2ccccn2)n1 [Compound of formula 83] | 2 log | <1 log | ≦1 log |
| CCCCCCCCCCCNc1nc(-c2ccccn2)nc(C)c1CC [Compound of formula 89] | 2 log | ≦1 log | ≦1 log |
| CCCCCCCCCCCCCCCNc1nc(-c2ccccn2)nc(C)c1CC [Compound of formula 90] | 2 log | <1 log | <1 log |
| CCCCCCCCCCCNc1cc(C)nc(-c2ccccn2)n1 [Compound of formula 92] | >3 log | ≦1 log | <1 log |
